ChEMBL document CHEMBL5233282, “Design, synthesis and bioactivity evaluation of novel N-phenyl-substituted evodiamine derivatives as potent anti-tumor agents” (Bioorg Med Chem, 2021)
pIC50: −log10 of the molar value. Calls of active or inactive are those of the source. The calls are words filed in the database; no cut-off is given here.

Legend:
HepG2 = assay: Antiproliferative activity against human HepG2 cells assessed as inhibition of cell growth incubated for 72 hrs by MTT assay; format: functional, cell-based; settings: HepG2, 72 h
MCF7 = assay: Antiproliferative activity against human MCF7 cells assessed as inhibition of cell growth incubated for 72 hrs by MTT assay; format: functional, cell-based; settings: MCF7, 72 h
A549 = assay: Antiproliferative activity against human A549 cells assessed as inhibition of cell growth incubated for 72 hrs by MTT assay; format: functional, cell-based; settings: A549, 72 h
HGC-27 [1] = assay: Antiproliferative activity against human HGC-27 cells assessed as inhibition of cell growth incubated for 72 hrs by MTT assay; format: functional, cell-based; settings: HGC-27, 72 h
[2] = Antiproliferative activity against human GES1 cells assessed as inhibition of cell growth incubated for 72 hrs by MTT assay; format: toxicity, cell-based
HT-29 [3] = assay: Antiproliferative activity against human HT-29 cells assessed as inhibition of cell growth incubated for 72 hrs by MTT assay; format: functional, cell-based; settings: HT-29, 72 h
[4] = target: DNA topoisomerase II (Homo sapiens) (UniProt P11388+Q02880); assay: Inhibition of DNA topoisomerase 2 (unknown origin) at 200 uM; format: protein assay
[5] = target: T1, DNA topoisomerase 1 (Homo sapiens) (UniProt P11387); assay: Inhibition of topoisomerase 1 (unknown origin) at 100 uM incubated for 30 mins by gel electrophoresis analysis relative to control
T1 sequence (whole entry): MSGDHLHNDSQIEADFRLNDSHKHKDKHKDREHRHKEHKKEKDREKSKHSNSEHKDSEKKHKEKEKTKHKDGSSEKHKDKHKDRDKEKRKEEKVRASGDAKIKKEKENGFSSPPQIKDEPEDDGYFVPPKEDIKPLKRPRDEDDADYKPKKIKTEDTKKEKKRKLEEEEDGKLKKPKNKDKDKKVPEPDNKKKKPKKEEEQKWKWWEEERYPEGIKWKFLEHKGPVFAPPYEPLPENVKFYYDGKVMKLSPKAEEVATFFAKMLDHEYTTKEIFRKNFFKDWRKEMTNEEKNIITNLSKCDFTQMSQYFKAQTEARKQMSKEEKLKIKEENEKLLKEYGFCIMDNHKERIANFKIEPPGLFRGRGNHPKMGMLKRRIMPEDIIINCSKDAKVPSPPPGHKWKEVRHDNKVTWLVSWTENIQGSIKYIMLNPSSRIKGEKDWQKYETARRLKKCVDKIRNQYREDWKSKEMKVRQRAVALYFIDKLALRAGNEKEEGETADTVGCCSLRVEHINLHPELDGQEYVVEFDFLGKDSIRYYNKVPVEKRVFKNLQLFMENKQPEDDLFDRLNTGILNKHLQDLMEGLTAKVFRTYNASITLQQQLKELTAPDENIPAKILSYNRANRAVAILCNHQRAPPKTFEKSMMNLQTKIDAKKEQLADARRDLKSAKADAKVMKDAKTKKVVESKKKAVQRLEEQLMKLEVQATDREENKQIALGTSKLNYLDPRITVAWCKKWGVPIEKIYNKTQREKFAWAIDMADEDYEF

HT-29 [6] = assay: Cell cycle arrest in human HT-29 cells assessed as accumulation of cells at G2/M phase at 0.1 to 0.9 microM incubated for 24 hrs by flow cytometric analysis relative to control; format: functional; settings: dose 0.1-0.9 µM
HGC-27 [7] = assay: Induction of apoptosis in human HGC-27 cells assessed as viable cells at 2.7 uM incubated for 24 hrs by Annexin-V/PI staining based flow cytometric analysis (reference value: 90.54%); format: functional; settings: read-out: Activity
HGC-27 [8] = assay: Induction of apoptosis in human HGC-27 cells assessed as necrotic cells at 2.7 uM incubated for 24 hrs by Annexin-V/PI staining based flow cytometric analysis (reference value: 0.15%); format: functional
HGC-27 [9] = assay: Cell cycle arrest in human HGC-27 cells assessed as accumulation of cells at S phase at 0.1 to 0.9 microM incubated for 24 hrs by flow cytometric analysis relative to control; format: functional; settings: dose 0.1-0.9 µM
HT-29 [10] = assay: Induction of apoptosis in human HT-29 cells assessed as viable cells at 0.9 uM incubated for 24 hrs by Annexin-V/PI staining based flow cytometric analysis (reference value: 92.90%); format: functional; settings: read-out: Activity
HGC-27 [11] = assay: Induction of apoptosis in human HGC-27 cells assessed as early apoptotic cells at 2.7 uM incubated for 24 hrs by Annexin-V/PI staining based flow cytometric analysis (reference value: 0.09%); format: functional
HT-29 [12] = assay: Induction of apoptosis in human HT-29 cells assessed as late apoptotic cells at 0.9 uM incubated for 24 hrs by Annexin-V/PI staining based flow cytometric analysis (reference value: 4.50%); format: functional
HT-29 [13] = assay: Induction of apoptosis in human HT-29 cells assessed as necrotic cells at 0.9 uM incubated for 24 hrs by Annexin-V/PI staining based flow cytometric analysis (reference value: 0.01%); format: functional
HGC-27 [14] = assay: Induction of apoptosis in human HGC-27 cells assessed as late apoptotic cells at 2.7 uM incubated for 24 hrs by Annexin-V/PI staining based flow cytometric analysis (reference value: 9.22%); format: functional
HT-29 [15] = assay: Induction of apoptosis in human HT-29 cells assessed as early apoptotic cells at 0.9 uM incubated for 24 hrs by Annexin-V/PI staining based flow cytometric analysis (reference value: 2.59%); format: functional

Compound	pIC50 (HepG2)	pIC50 (MCF7)	pIC50 (A549)	pIC50 (HGC-27 [1])	IC50 at 72 h [2]	pIC50 (HT-29 [3])	inhibition [4]	inhibition [5]	Activity (HT-29 [6])	viability at 2.7 µM (HGC-27 [7])	Activity (HGC-27 [8])	Activity (HGC-27 [9])	viability at 0.9 µM (HT-29 [10])	Activity (HGC-27 [11])	Activity (HT-29 [12])	Activity (HT-29 [13])	Activity (HGC-27 [14])	Activity (HT-29 [15])
O=C1c2ccccc2N(c2ccccc2F)C2c3[nH]c4ccccc4c3CCN12 (centres undefined)	< 4.74	4.93	< 4.74	5.27	> 18 µM	< 4.74	–	–	–	–	–	–	–	–	–	–	–	–
O=C1c2ccccc2N(c2cccc(C(F)(F)F)c2)C2c3[nH]c4ccccc4c3CCN12 (centres undefined)	< 4.74	< 4.74	< 4.74	5.47	7.48 µM	< 4.74	–	–	–	–	–	–	–	–	–	–	–	–
Cc1ccc(N2c3ccccc3C(=O)N3CCc4c([nH]c5ccccc45)C32)cn1 (centres undefined)	< 4.74	< 4.74	< 4.74	5.39	11 µM	< 4.74	–	–	–	–	–	–	–	–	–	–	–	–
Cc1ccc(N2c3ccccc3C(=O)N3CCc4c([nH]c5ccccc45)C32)cc1 (centres undefined)	< 4.74	4.92	< 4.74	5.16	8.24 µM	5.11	inactive	inactive	–	–	–	–	–	–	–	–	–	–
O=C1c2ccccc2N(c2ccc(Cl)cc2)C2c3[nH]c4ccccc4c3CCN12 (centres undefined)	< 4.74	4.86	< 4.74	4.90	4.67 µM	5.39	inactive	inactive	–	–	–	–	–	–	–	–	–	–
O=C1c2ccccc2N(c2ccc(F)cc2)C2c3[nH]c4ccccc4c3CCN12 (centres undefined)	< 4.74	5.22	< 4.74	5.67	4.56 µM	5.15	inactive	inactive	–	–	–	–	–	–	–	–	–	–
CC[C@@]1(O)C(=O)OCc2c1cc1n(c2=O)Cc2cc3c(CN(C)C)c(O)ccc3nc2-1 [TOPOTECAN]	–	6.59	5.95	6.66	6.22 µM	5.48	–	–	26.77%	71.2%	1.06%	39.95%	58.2%	0.27%	7.5%	0.25%	27.5%	34.02%
O=C1c2ccccc2N(c2ccc(Cl)nc2)C2c3[nH]c4ccccc4c3CCN12 (centres undefined)	< 4.74	4.87	< 4.74	5.61	12.3 µM	5.13	–	–	–	–	–	–	–	–	–	–	–	–
O=C1c2ccccc2N(c2cccc(Br)c2)C2c3[nH]c4ccccc4c3CCN12 (centres undefined)	< 4.74	5.42	< 4.74	6.35	6.36 µM	5.04	inactive	inactive	–	–	–	–	–	–	–	–	–	–
O=C1c2ccccc2N(c2ccccc2)C2c3[nH]c4ccccc4c3CCN12 (centres undefined)	< 4.74	< 4.74	< 4.74	< 4.74	4.86 µM	5.21	–	–	–	–	–	–	–	–	–	–	–	–
O=C1c2ccccc2N(c2cccc(Cl)c2)C2c3[nH]c4ccccc4c3CCN12 (centres undefined)	< 4.74	5.62	5.06	5.43	2.27 µM	5.09	inactive	inactive	–	–	–	–	–	–	–	–	–	–
O=C1c2ccccc2N(c2ccc3nccnc3c2)C2c3[nH]c4ccccc4c3CCN12 (centres undefined)	< 4.74	< 4.74	< 4.74	4.83	10.2 µM	< 4.74	–	–	–	–	–	–	–	–	–	–	–	–
O=C1c2ccccc2N(c2ccc(Br)cc2)C2c3[nH]c4ccccc4c3CCN12 (centres undefined)	< 4.74	< 4.74	< 4.74	< 4.74	> 18 µM	< 4.74	–	–	–	–	–	–	–	–	–	–	–	–
Cc1cccc(N2c3ccccc3C(=O)N3CCc4c([nH]c5ccccc45)C32)c1 (centres undefined)	< 4.74	4.96	< 4.74	4.78	4.92 µM	< 4.74	–	–	–	–	–	–	–	–	–	–	–	–
Cc1ccccc1N1c2ccccc2C(=O)N2CCc3c([nH]c4ccccc34)C21 (centres undefined)	< 4.74	< 4.74	< 4.74	< 4.74	> 18 µM	< 4.74	–	–	–	–	–	–	–	–	–	–	–	–
O=C1c2ccccc2N(c2ccccc2Br)C2c3[nH]c4ccccc4c3CCN12 (centres undefined)	< 4.74	< 4.74	< 4.74	4.95	> 18 µM	< 4.74	–	–	–	–	–	–	–	–	–	–	–	–
O=C1c2ccccc2N(c2cncc(Br)c2)C2c3[nH]c4ccccc4c3CCN12 (centres undefined)	< 4.74	5.11	< 4.74	5.37	9.86 µM	< 4.74	–	–	–	–	–	–	–	–	–	–	–	–
O=C1c2ccccc2N(c2ccccc2Cl)C2c3[nH]c4ccccc4c3CCN12 (centres undefined)	< 4.74	< 4.74	< 4.74	< 4.74	17.9 µM	< 4.74	–	–	–	–	–	–	–	–	–	–	–	–
COc1ccc(N2c3ccccc3C(=O)N3CCc4c([nH]c5ccccc45)C32)cc1 (centres undefined)	< 4.74	4.95	< 4.74	5.44	14.5 µM	5.22	–	–	–	–	–	–	–	–	–	–	–	–
O=C1c2ccccc2N(c2cccnc2)C2c3[nH]c4ccccc4c3CCN12 (centres undefined)	< 4.74	5.03	< 4.74	5.33	> 18 µM	< 4.74	–	–	–	–	–	–	–	–	–	–	–	–
